{
  "source": "patent US9308210B2",
  "about": "“Method for modulating canonical Wnt pathway using folate and inositol” (University of South Florida, priority 2009, dated 2016)",
  "key": {"C57BL/6 mouse embryos": {"system": "C57BL/6 mouse embryos", "assay": "Doppler ultrasonography at E15.5 of mouse embryos exposed to Li or HCy on E6.75, FA rescue", "assay_type": "in vivo", "details": "for Valve Regurgitation (percent of embryos): hydrochloride", "excerpt": "To determine whether the results in the avian system would extend to the mammalian system, the inventors conducted studies in the mouse embryo. All mice were maintained according to protocols approved by the Institutional Animal Care and Use Committee at the University of South Florida. The C57BL/6 mouse strain (Jackson Laboratories, Bar Harbor, Me.) was used throughout the study. E0.5 was defined as the morning when the vaginal sperm plug was detected. Timed pregnant mice were randomly allocated to receive a single dose of 100 μl of 6.25 mg/ml Li chloride, as determined previously (Chen et al., 2008), 100 μl of 75 μM HCy, or 100 μl of 6.25 mg/ml sodium chloride (control group); all treatments were given intraperitoneally (i.p). On E15.5, the utero-placental circulation of the pregnant mice, and the central and peripheral circulations of the embryos were examined non-invasively in utero using Doppler ultrasonography (Gui et al., 1996; Linask and Huhta, 2000). Sixty-eight embryos were exposed to Li, 59 to HCy and 42 to physiological saline.\nAn HCy concentration of 75 μM, used for maternal exposure, was determined empirically using different doses of HCy (i.e. 150, 75, 50 and 15 μM). The minimal teratogenic dose was determined to be 75 μM. […] The single i.p. injection of HCy at E6.75 produced a high number of valve defects (66%), as well as resorptions (46%). […] Because not all embryos within litters are at exactly the same stage of development, the variability of effects seen with either Li or HCy probably reflects the differences in developmental stage.\nAs a control diet (i.e. normal mouse chow), mice continued to receive 3.3 mg/kg of FA as the baseline to maintain the health of the female mice. […] The animal chow supplemented with 10.5 mg/kg of FA was prepared for us by Harlan Laboratories. As recommended by Harlan, the calculations for the FA level in the special diet are based on the metabolic body weight of mice. Because of the obvious large difference in body weight between humans and mice, and because of the large difference in metabolic rate, Harlan uses the metabolic weight as a method of scaling these differences between species; for mice this was calculated to be BW0.75 (i.e. metabolic weight equals body weight to the 0.75 power). Each mouse consumes approximately 4 g of chow per day; therefore, to obtain the desired dose of 10.5 mg/kg, the inventors added 7.2 mg/kg of FA to the normal 3.3 mg/kg that is present in commercial chow. […]\nDoppler ultrasonographic examinations were carried out using the Philips Sonos 5500 (Andover, Mass.) with a 12 MHz transducer and, more recently, with a Vevo 770 (VisualSonics) system. Both instruments provided similar echo patterns. On E15.5, the pregnant mice were anesthetized using a Surgivet Tech 4 anesthesia system (Waukesha, Wis.) with inhalation anesthesia, consisting of 3% isoflurane, administered through a nose cone; the mice were then maintained on 1% isoflurane with 21% oxygen. The mother was placed supine on a heating pad with electrode footpads. The heart rate and temperature of the pregnant mice were monitored using a THM100 (Indus Instruments, Houston, Tex.) during scanning. The body temperature was maintained at 37° C.\nMaternal uterine artery blood flow velocity waveforms were obtained and the pulsatility index was calculated. The embryos were visualized and their position mapped in each uterine horn. Blood flow in the heart and blood vessels was detected in each embryo using color Doppler, and blood flow velocity waveforms were obtained using pulsed wave Doppler. Once the embryonic heart was identified by color Doppler, the sample volume of the pulsed Doppler was placed over the entire heart to obtain blood velocities. The gate length was adjusted to completely insonate the beating embryonic heart. The high-pass filter was at its lowest setting of 50 Hz. […]"}, "[1]": {"system": "neutral lipid droplets in heart and placenta", "assay": "Oil Red O staining of neutral lipid droplets in E15.5 heart and placenta", "assay_type": "in vivo, mouse", "details": "for ORO neutral lipid localization in the placenta: labyrinth and maternal decidua", "excerpt": "Oil Red O (ORO), a fat soluble dye, was used to detect neutral lipids (triglycerides, diacylglycerols, and cholesterol esters) in cryosectioned E15.5 cardiac and placental tissues. The staining methodology was followed as published. This method estimates tissue lipid content and localization (Mehlem et al., 2013). Lipid droplets stain red and nuclei blue. Polar lipids (phospholipids, sphingolipids and ceramides) are not stained (Fowler and Greenspan, 1985)."}, "[2]": {"details": "echo at E15.5 after exposure on E6.75"}, "[3]": {"details": "echo at E15.5 after single exposure on E6.75"}, "[4]": {"details": "median, E15.5 after exposure at E6.75"}},
  "note": "Where “and” joins values, the source holds several entries; their conditions need not be identical. Identical values can stand only once. Counter-ions that a name gives are not always drawn.",
  "data": [
    {"smiles": "N[C@H]1CCSC1=O", "note": "[HCy, L-homocysteine thiolactone hydrochloride]", "values": [
      {"measurement": "outflow peak velocity, maximum mean value", "setting": "C57BL/6 mouse embryos; E15.5", "value": 84.0},
      {"measurement": "outflow peak velocity, maximum value", "setting": "C57BL/6 mouse embryos; E15.5", "value": 84.00, "unit": "cm/s"},
      {"measurement": "outflow peak velocity, minimum mean value", "setting": "C57BL/6 mouse embryos; E15.5", "value": 18.5},
      {"measurement": "outflow peak velocity, minimum value", "setting": "C57BL/6 mouse embryos; E15.5", "value": 18.53, "unit": "cm/s"},
      {"measurement": "AV valve regurgitation, percent of embryos", "setting": "C57BL/6 mouse embryos; [2]", "value": 10, "unit": "%"},
      {"measurement": "SL valve regurgitation, percent of embryos", "setting": "C57BL/6 mouse embryos; [2]", "value": 53, "unit": "%"},
      {"measurement": "both SL and AV valve regurgitation, percent of embryos", "setting": "C57BL/6 mouse embryos; [2]", "value": 3, "unit": "%"},
      {"measurement": "Valve Regurgitation (embryos affected/total)", "setting": "C57BL/6 mouse embryos; [3]", "value": "39/59"},
      {"measurement": "Valve Regurgitation (percent of embryos)", "setting": "C57BL/6 mouse embryos; [3]", "value": "66% and 66.1%"},
      {"measurement": "Valve Regurgitation (percent of embryos)", "setting": "C57BL/6 mouse embryos; echo at E15.5 after single exposure on E6.75, listed as HCys", "value": 66.1, "unit": "%"},
      {"measurement": "minimal teratogenic dose", "setting": "C57BL/6 mouse embryos; maternal exposure, mouse, 150, 75, 50 and 15 μM tested", "value": 75, "unit": "µM"},
      {"measurement": "Embryonic A vel", "setting": "C57BL/6 mouse embryos; [4]", "value": 40.14, "unit": "cm/s"},
      {"measurement": "Embryonic Descending Aorta PI", "setting": "C57BL/6 mouse embryos; [4]", "value": 1.99},
      {"measurement": "Embryonic Ductus Veno sus PI", "setting": "C57BL/6 mouse embryos; [4]", "value": 0.97},
      {"measurement": "Embryonic E vel", "setting": "C57BL/6 mouse embryos; [4]", "value": 12.25, "unit": "cm/s"},
      {"measurement": "Embryonic E/A ratio", "setting": "C57BL/6 mouse embryos; [4]", "value": 0.30},
      {"measurement": "Embryonic ET %", "setting": "C57BL/6 mouse embryos; [4]", "value": 42.51, "unit": "%"},
      {"measurement": "Embryonic Heart Rate", "setting": "C57BL/6 mouse embryos; [4]", "value": 181, "unit": "beats/min"},
      {"measurement": "Embryonic ICT %", "setting": "C57BL/6 mouse embryos; [4]", "value": 6.56, "unit": "%"},
      {"measurement": "Embryonic IRT %", "setting": "C57BL/6 mouse embryos; [4]", "value": 11.93, "unit": "%"},
      {"measurement": "Embryonic MPI", "setting": "C57BL/6 mouse embryos; [4]", "value": 0.44},
      {"measurement": "Embryonic OF peak velocity", "setting": "C57BL/6 mouse embryos; [4]", "value": 39.92, "unit": "cm/s"},
      {"measurement": "Embryonic Umbilical Artery PI", "setting": "C57BL/6 mouse embryos; [4]", "value": 1.55},
      {"measurement": "Maternal Heart Rate", "setting": "C57BL/6 mouse embryos; [4]", "value": "#458 beats/min"},
      {"measurement": "Maternal Uterine Artery PI", "setting": "C57BL/6 mouse embryos; [4]", "value": 2.82},
      {"measurement": "valve defects after i.p. injection on E7.75", "setting": "C57BL/6 mouse embryos; mouse, in vivo, ip", "value": "did not cause any valve defects"},
      {"measurement": "ORO staining of neutral lipids in the heart", "setting": "[1]", "value": "did not alter ORO staining in the trabeculae"},
      {"measurement": "ORO neutral lipid localization in the placenta", "setting": "[1]", "value": "patch-like neutral lipid localization"}
    ]},
    {"smiles": "Nc1nc2ncc(CNc3ccc(C(=O)N[C@@H](CCC(=O)O)C(=O)O)cc3)nc2c(=O)[nH]1", "note": "[FA, folic acid]", "values": [
      {"measurement": "rescue of cardiac defects by baseline FA supplementation", "setting": "C57BL/6 mouse embryos; 3.3 mg/kg of FA in normal mouse chow", "value": "does not rescue cardiac defects"},
      {"measurement": "normalization of exposure effects by FA provided on E6.75", "setting": "C57BL/6 mouse embryos; FA i.p. on E6.75", "value": "normalized the effects of HCy, but not Li"},
      {"measurement": "ORO neutral lipid localization in the placenta", "setting": "[1]", "value": "more normal organization of labyrinth"}
    ]}
  ]
}
